Assay results published in paper PMC6792352, “Limited Chemical Structural Diversity Found to Modulate Thyroid Hormone Receptor in the Tox21 Chemical Library” (Environmental Health Perspectives, 2019).
Structures can show the parent of a compound that is named as a salt.

assay: in vitro; conditions: rat, gh3-tre-luc cells, AC50 (uM) modified / 1000

Row | Structure (SMILES) | CC50 at 24 h
1 | Fc1ccc(C(c2ccc(F)cc2)N2CCN(C/C=C/c3ccccc3)CC2)cc1 [Flunarizine] | 12.3 µM
2 | COC(C)(C)CCCC(C)C/C=C/C(C)=C/C(=O)OC(C)C (stereo not shown) [Methoprene] | > 90 µM
3 | CC1CCC(=O)C1=O (stereo not shown) [3-Methyl-1,2-cyclopentanedione] | > 100 µM
4 | CC(N)CN (stereo not shown) [1,2-Diaminopropane] | > 100 µM
5 | [N-]=[N+]=CC(=O)OC[C@H](N)C(=O)O [Azaserine] | > 50 µM
6 | CC(C)[C@H](Nc1ccc(C(F)(F)F)cc1Cl)C(=O)OC(C#N)c1cccc(Oc2ccccc2)c1 (stereo partly shown) [Fluvalinate] | > 90 µM
7 | CCCCO [1-Butanol] | > 90 µM
8 | c1ccc2cnncc2c1 [Phthalazine] | > 90 µM
9 | Cc1ccc(C)c(OCCCC(C)(C)C(=O)O)c1 [Gemfibrozil] | > 90 µM
10 | O=C1Nc2ccccc2C1=O [Isatin] | > 90 µM
11 | COCCC#N [3-Methoxypropionitrile] | > 90 µM
12 | C=CCOC(=O)/C=C\C(=O)OCC=C [Diprop-2-en-1-yl (2Z)-but-2-enedioate] | > 90 µM
13 | COCc1ccc(COC)cc1 [1,4-Bis(methoxymethyl)benzene] | > 90 µM
14 | C[C@]12CC[C@@H]3c4ccc(O)cc4CC[C@H]3[C@@H]1CC[C@@H]2O [17beta-Estradiol] | > 90 µM
15 | c1ccc(OCC2CO2)cc1 (stereo not shown) [Phenyl glycidyl ether] | > 90 µM
16 | COC(=O)c1ccc(C=O)cc1 [Methyl 4-formylbenzoate] | > 90 µM
17 | CC1=C(/C=C/C(C)=C/C=C/C(C)=C\C=O)C(C)(C)CCC1 [13-cis-Retinal] | 45.2 µM
18 | CCCc1ccc(N)cc1 [4-Propylaniline] | > 90 µM
19 | CC(=O)OC/C=C(/C)CCC=C(C)C [cis-3,7-Dimethyl-2,6-octadien-1-yl acetate] | > 90 µM
20 | C=CCCCCCCCCC(=O)OCCCC [Butyl undec-10-enoate] | > 90 µM
21 | CCCC(C)C1(CC)C(=O)NC(=O)NC1=O (stereo not shown) [Pentobarbital] | > 50 µM
22 | COC(=O)CC(C)=O [Methyl acetoacetate] | > 90 µM

Row | Structure (SMILES) | CC50 at 24 h
23 | CCCCCCCCCCCCCCCC(=O)OC[C@H](COP(=O)([O-])OCC[N+](C)(C)C)OC(=O)CCCCCCCCCCCCCCC [Colfosceril palmitate] | > 50 µM
24 | CC[C@H](C)[C@H]1O[C@]2(C=C[C@@H]1C)C[C@@H]1C[C@@H](C/C=C(\C)[C@@H](O[C@H]3C[C@H](OC)[C@@H](O[C@H]4C[C@H](OC)[C@H](NC(C)=O)[C@H](C)O4)[C@H](C)O3)[C@@H](C)/C=C/C=C3\CO[C@@H]4[C@H](O)C(C)=C[C@@H](C(=O)O1)[C@]34O)O2 [Eprinomectin B1a] | 7.24 µM
25 | CCCCCCCCCC/C=C/C1CC(=O)OC1=O (stereo not shown) [3-(Dodecenyl)dihydro-2,5-furandione] | > 90 µM
26 | CCC(C)C=O (stereo not shown) [2-Methylbutanal] | > 90 µM
27 | CCC[C@@H]1C[C@@H](C(=O)N[C@@H]([C@H]2O[C@H](SC)[C@H](O)[C@@H](O)[C@H]2O)[C@@H](C)O)N(C)C1 [Lincomycin hydrochloride] | > 50 µM
28 | CCC/C=C/CO [(E)-2-Hexen-1-ol] | > 90 µM
29 | COc1cc(CC(C)N)cc(OC)c1OC (stereo not shown) [3,4,5-Trimethoxyamphetamine hydrochloride] | > 100 µM
30 | C=CC(=O)OCCCCCCCCCC [Decyl prop-2-enoate] | > 90 µM
31 | CCOC(=O)COc1ccc2c(C)c(CCN(CC)CC)c(=O)oc2c1 [Chromonar hydrochloride] | > 50 µM
32 | C=CC[C@]1(O)CC[C@H]2[C@@H]3CCC4=CC(=O)CCC4=C3C=C[C@@]21C [Altrenogest] | > 50 µM
33 | O=C1c2c(O)cccc2C([C@@H]2O[C@H](CO)[C@@H](O)[C@H](O)[C@H]2O)c2cc(CO)cc(O)c21 (stereo partly shown) [Aloin] | > 50 µM
34 | CC1=C(C)C(=O)C(CCCCC#CCCCC#CCO)=C(C)C1=O [Docebenone] | 23.5 µM
35 | CC(C)(O/N=C(\C(=O)N[C@@H]1C(=O)N2C(C(=O)[O-])=C(C[n+]3ccccc3)CS[C@H]12)c1csc(N)n1)C(=O)O [Ceftazidime pentahydrate] | > 20 µM
36 | Nc1ccn([C@H]2CC[C@@H](CO)O2)c(=O)n1 [2',3'-Dideoxycytidine] | > 50 µM
37 | O=C(c1ccccc1)c1cc(Cl)ccc1O [(5-Chloro-2-hydroxyphenyl)phenylmethanone] | > 90 µM
38 | CC(C)(O)c1ccccc1CC[C@@H](SCC1(CC(=O)O)CC1)c1cccc(/C=C/c2ccc3ccc(Cl)cc3n2)c1 [Montelukast sodium] | 35.1 µM
39 | CCOCCOCCOCCO [2-[2-(2-Ethoxyethoxy)ethoxy]ethanol] | > 90 µM
40 | CC(O)C(=O)O (stereo not shown) [Calcium lactate] | > 90 µM
41 | COC1CCC=CO1 (stereo not shown) [3,4-Dihydro-2-methoxy-2H-pyran] | > 90 µM
42 | C=C(C)C(=O)OCCOC(=O)CC(C)=O [2-[Methacryloyloxy]ethyl acetoacetate] | > 90 µM
43 | CC(=O)/C=C/C1=C(C)CCCC1(C)C [beta-Ionone] | > 90 µM
44 | Cc1ccccc1N1C(=O)c2cc(S(N)(=O)=O)c(Cl)cc2NC1C (stereo not shown) [Metolazone] | > 50 µM

Row | Structure (SMILES) | CC50 at 24 h
45 | C=CC(=O)OCCCCCCCC [Octyl prop-2-enoate] | > 90 µM
46 | Cc1ccc(-n2nc(C(C)(C)C)cc2NC(=O)Nc2ccc(OCCN3CCOCC3)c3ccccc23)cc1 [Doramapimod] | > 50 µM
47 | COc1cc(CCN)cc(OC)c1OC [Mescaline hydrochloride] | > 100 µM
48 | CC1(C)C(/C=C/C=C/C=C/C=C2\N(CCCCS(=O)(=O)O)c3ccc4ccccc4c3C2(C)C)=[N+](CCCCS(=O)(=O)[O-])c2ccc3ccccc3c21 [Indocyanine green] | 19.5 µM
49 | CC(=O)OCC1=C(C(=O)O)N2C(=O)[C@@H](NC(=O)Cc3ccccc3)[C@H]2SC1 [Cefaloram] | > 50 µM
50 | OC[C@@H](O)[C@@H](O)[C@H](O)[C@H](O)CO [D-Mannitol] | > 90 µM
51 | COC(=O)[C@H]1[C@H]2C[C@@H]3c4[nH]c5cc(OC)ccc5c4CCN3C[C@H]2C[C@H](OC)[C@@H]1OC [Metoserpate hydrochloride] | > 50 µM
52 | COC(=O)CCSCCC(=O)OC [Dimethyl 3,3'-thiodipropionate] | > 90 µM
53 | NCCOCCN [2,2'-Oxybis(ethylamine)] | > 90 µM
54 | CCN(CC)CCOC[C@H]1O[C@@H](O)[C@H](OCCN(CC)CC)[C@@H](O)[C@@H]1O [Diethylaminoethyl-sephacel] | > 50 µM
55 | CO[C@@H]1[C@H](OC(=O)NC(=O)CCl)CC[C@]2(CO2)[C@H]1[C@@]1(C)O[C@@H]1CC=C(C)C [o-(Chloroacetylcarbamoyl)fumagillol] | > 30 µM
56 | CC(=O)OC1CN2CCC1CC2 (stereo not shown) [Aceclidine] | > 50 µM
57 | CN(CCO)CC(O)Cn1cnc2c1c(=O)n(C)c(=O)n2C (stereo not shown) [Xanthinol niacinate] | > 50 µM
58 | CNC(=S)NN [N-Methylhydrazinecarbothioamide] | 52.5 µM
59 | C=CC(=O)NCOCCCC [N-(Butoxymethyl)acrylamide] | > 100 µM
60 | CC[C@@H]1/C=C(\C)C[C@H](C)C[C@H](OC)[C@H]2O[C@@](O)(C(=O)C(=O)N3CCCC[C@H]3C(=O)O[C@H](/C(C)=C/[C@@H]3CC[C@H](Cl)[C@H](OC)C3)[C@H](C)[C@@H](O)CC1=O)[C@H](C)C[C@@H]2OC [Pimecrolimus] | > 50 µM
61 | O=C(c1ccc(Cl)cc1)c1ccc(Cl)cc1 [4,4'-Dichlorobenzophenone] | > 90 µM
62 | N[C@@H](Cc1cc(I)c(Oc2cc(I)c(O)c(I)c2)c(I)c1)C(=O)O [Levothyroxine] | > 60 µM
63 | BrCc1cccc(Oc2ccccc2)c1 [1-(Bromomethyl)-3-phenoxybenzene] | > 90 µM
64 | O=C(Nc1ccc2c(c1)Cc1ccccc1-2)C(F)(F)F [N-(2-Fluorenyl)-2,2,2-trifluoroacetamide] | > 90 µM

same assay, conditions: rat, gh3-tre-luc cells, AC50 (uM) modified / 1000, Tox21_110001=Tox21_111132; viability, 1 nM T3 present, 24 h

Row | Structure (SMILES) | CC50 at 24 h
65 | C[C@H]1CC[C@@H]2[C@@H](C)[C@H]3[C@H](C[C@H]4[C@@H]5CC=C6C[C@@H](O[C@@H]7O[C@H](CO)[C@H](O)[C@H](O[C@@H]8O[C@H](CO)[C@@H](O)[C@H](O)[C@H]8O)[C@H]7O[C@@H]7O[C@@H](C)[C@H](O)[C@@H](O)[C@H]7O)CC[C@]6(C)[C@H]5CC[C@]34C)N2C1 [alpha-Solanine] | 17.5 µM

same assay, conditions: rat, gh3-tre-luc cells, AC50 (uM) modified / 1000, Tox21_110001=Tox21_200022; viability, 1 nM T3 present, 24 h

Row | Structure (SMILES) | CC50 at 24 h
66 | O=[N+]([O-])c1cccc(O)c1 [3-Nitrophenol] | > 90 µM

same assay, conditions: rat, gh3-tre-luc cells, AC50 (uM) modified / 1000, Tox21_110001=Tox21_200104; viability, 1 nM T3 present, 24 h

Row | Structure (SMILES) | CC50 at 24 h
67 | C[C@H]1CC[C@@H]2[C@@H](C)[C@H]3[C@H](C[C@H]4[C@@H]5CC=C6C[C@@H](O[C@@H]7O[C@H](CO)[C@H](O)[C@H](O[C@@H]8O[C@H](CO)[C@@H](O)[C@H](O)[C@H]8O)[C@H]7O[C@@H]7O[C@@H](C)[C@H](O)[C@@H](O)[C@H]7O)CC[C@]6(C)[C@H]5CC[C@]34C)N2C1 [alpha-Solanine] | 16.1 µM

same assay, conditions: rat, gh3-tre-luc cells, AC50 (uM) modified / 1000, Tox21_110001=Tox21_202336; viability, 1 nM T3 present, 24 h

Row | Structure (SMILES) | CC50 at 24 h
68 | CCCCN(CCCC)SN(C)C(=O)Oc1cccc2c1OC(C)(C)C2 [Carbosulfan] | > 90 µM

same assay, conditions: rat, gh3-tre-luc cells, AC50 (uM) modified / 1000, Tox21_110001=Tox21_202359; viability, 1 nM T3 present, 24 h

Row | Structure (SMILES) | CC50 at 24 h
69 | Nc1ccc(-c2ccc(N)cc2)cc1 [Benzidine] | > 90 µM

same assay, conditions: rat, gh3-tre-luc cells, AC50 (uM) modified / 1000, Tox21_110001=Tox21_202584; viability, 1 nM T3 present, 24 h

Row | Structure (SMILES) | CC50 at 24 h
70 | Nc1ccc(-c2ccc(N)cc2)cc1 [Benzidine dihydrochloride] | > 50 µM

same assay, conditions: rat, gh3-tre-luc cells, AC50 (uM) modified / 1000, Tox21_110001=Tox21_300473; viability, 1 nM T3 present, 24 h

Row | Structure (SMILES) | CC50 at 24 h
71 | CCCCN(CCCC)SN(C)C(=O)Oc1cccc2c1OC(C)(C)C2 [Carbosulfan] | 24.2 µM

same assay, conditions: rat, gh3-tre-luc cells, AC50 (uM) modified / 1000, Tox21_110001=Tox21_300595; viability, 1 nM T3 present, 24 h

Row | Structure (SMILES) | CC50 at 24 h
72 | O=C(O)C(F)(F)C(F)(F)C(F)(F)C(F)(F)C(F)(F)C(F)(F)C(F)(F)F [Ammonium perfluorooctanoate] | > 90 µM

same assay, conditions: rat, gh3-tre-luc cells, AC50 (uM) modified / 1000, Tox21_110001=Tox21_302060; viability, 1 nM T3 present, 24 h

Row | Structure (SMILES) | CC50 at 24 h
73 | O=P(O)(O)c1ccccc1 [Phenylphosphonic acid] | > 90 µM
